We go through one compound from ChEMBL document CHEMBL1157598, “Direct determination of the insulin-insulin receptor interface using transferred cross-saturation experiments” (J Med Chem, 2010).

For test [1], the target named is Insulin receptor (Homo sapiens) (UniProt P06213). The experiment in a line: Displacement of [125I]insulin from insulin receptor chimera fused with Fc-region of IgG at 100 uM by scintillation proximity assay.
Test [2] shares this target. Briefly: Displacement of [125I]insulin from insulin receptor chimera fused with Fc-region of IgG at 300 uM by scintillation proximity assay.

Insulin receptor (Homo sapiens), sequence (P06213 28-758 limits assumed): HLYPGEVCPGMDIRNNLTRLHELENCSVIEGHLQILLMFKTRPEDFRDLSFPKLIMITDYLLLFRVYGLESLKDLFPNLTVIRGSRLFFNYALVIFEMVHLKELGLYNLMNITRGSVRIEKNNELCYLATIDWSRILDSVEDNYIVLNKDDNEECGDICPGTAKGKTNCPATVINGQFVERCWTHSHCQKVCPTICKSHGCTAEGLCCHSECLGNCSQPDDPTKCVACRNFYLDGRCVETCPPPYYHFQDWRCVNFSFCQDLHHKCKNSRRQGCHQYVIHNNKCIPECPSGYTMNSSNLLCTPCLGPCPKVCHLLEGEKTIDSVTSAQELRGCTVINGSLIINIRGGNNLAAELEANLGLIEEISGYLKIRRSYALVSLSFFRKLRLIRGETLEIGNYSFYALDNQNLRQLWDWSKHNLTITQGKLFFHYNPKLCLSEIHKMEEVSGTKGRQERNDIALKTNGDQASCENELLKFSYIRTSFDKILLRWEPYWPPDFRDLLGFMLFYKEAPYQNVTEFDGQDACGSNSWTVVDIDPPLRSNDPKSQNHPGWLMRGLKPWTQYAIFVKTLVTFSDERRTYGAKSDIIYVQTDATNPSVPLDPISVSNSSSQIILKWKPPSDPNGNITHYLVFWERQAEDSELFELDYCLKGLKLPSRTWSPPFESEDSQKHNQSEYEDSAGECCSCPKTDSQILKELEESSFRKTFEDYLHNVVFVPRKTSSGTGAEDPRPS
Insulin receptor (Homo sapiens), sequence (P06213 763-1382 limits assumed): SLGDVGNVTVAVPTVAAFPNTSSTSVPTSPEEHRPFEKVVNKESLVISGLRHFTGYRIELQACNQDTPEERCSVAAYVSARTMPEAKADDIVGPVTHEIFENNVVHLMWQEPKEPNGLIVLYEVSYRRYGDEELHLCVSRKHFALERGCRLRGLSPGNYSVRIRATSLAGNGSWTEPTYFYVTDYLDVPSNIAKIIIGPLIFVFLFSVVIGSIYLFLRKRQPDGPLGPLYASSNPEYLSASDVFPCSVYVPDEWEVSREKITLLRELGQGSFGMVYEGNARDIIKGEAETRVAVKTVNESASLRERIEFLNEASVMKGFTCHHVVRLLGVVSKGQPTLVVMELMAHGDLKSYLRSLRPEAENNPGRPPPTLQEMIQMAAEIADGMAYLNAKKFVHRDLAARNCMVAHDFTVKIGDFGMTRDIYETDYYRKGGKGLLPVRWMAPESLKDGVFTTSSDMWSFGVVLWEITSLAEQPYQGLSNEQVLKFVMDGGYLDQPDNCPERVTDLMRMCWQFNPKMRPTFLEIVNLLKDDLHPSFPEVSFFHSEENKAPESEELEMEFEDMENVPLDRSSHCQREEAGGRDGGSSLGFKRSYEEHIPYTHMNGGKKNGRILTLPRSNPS

As to `O=C(CSc1nnc(Nc2ccccc2F)s1)c1ccc(OC(F)F)cc1`, the Activity worked out at 69% in test [1] and 49% in test [2].
